Test results: patent publication EP4120837B1, “INHIBITORS OF CYTOKININ OXIDASE DERIVED FROM 2-(3-PHENYLUREIDO)BENZAMIDE, USE THEREOF AND PREPARATIONS CONTAINING THESE DERIVATIVES” (Univerzita Palackého v Olomouci, priority 2020, dated 2021)
Values joined by “and” are separate entries in the source; they are usually repeats but may differ in a detail not shown here. Equal values may be shown once. Read-outs that look alike come from different tables or passages of the source.

Key:
Arabidopsis thaliana [1] = test: Foliar application, life span and seed yield of Arabidopsis under drought stress; type: in vivo; conditions: 0.01 µM foliar spray, reduced watering
Procedure: Young Arabidopsis thaliana plants grown in small pots in soil were sprayed with a 0.01 µM aqueous solution of substance 24 in phase of four true leaves (within 14-20 days after sowing). Control plants were sprayed with an aqueous solution of DMSO (c = 0.01% (v/v)) and silwet (c = 0.001% (v/v)). Control plants were further divided into watered plants and those with reduced watering (drought stressed). […] All plants were grown until the stage of their natural death. Control watered plants lived for an average of 85 days before dying spontaneously. Their seed yield in average was 141 (± 22) mg. Control plants with reduced watering lived only 61 days on average and the average yield was 95 (± 14) mg. Plants treated with substance 24 and with reduced watering lived for an average of 75 days and their average seed yield was 117 (± 16) mg. […] Table 3. Foliar application with compound 24 reduces Arabidopsis thaliana seed yield losses

barley = test: Field trial, seed yield of barley; type: in vivo; conditions: for Yield (%): control = 100 %
Procedure: The effect of compound 24 on seed yield of barley and its phenotype was investigated in a field trials. All field experiments were performed according to Good agricultural practices, ie. six areas of 10 m^2 were used for one variant. Furthermore, the crop was not treated with any other growth regulator (substance 24 only) or fungicide. Compound 24 was applied to seeds at a concentration of 10 µM before sowing. In 2016 barley seeds treated by this way were grown in the field and the yield of these plants was compared with the untreated control (Table 4).
In 2017, compound 24 was applied to barley leaves at a concentration of 5 µM (in a volume of 200 L per hectare) in two different growth phases - BBCH 21-23 and BBCH 51. […] Table 4. Application of substance 24 increases the seed yield of barley in field conditions

wheat = test: Field trial, seed yield of wheat; type: in vivo; conditions: for Yield (%): control = 100 %
Procedure: Example 19. The application of compound 24 increases the seed yield of wheat in field conditions In 2017, the effect of the application of substance 24 on wheat yield in field conditions was investigated. The substance was again applied either to wheat seeds before sowing (= seed dressing with substance 24 at a concentration of 50 µM) or to leaves (= spraying with substance 24 at a concentration of 5 µM) in two different growth phases - BBCH 25 and BBCH 51. All field experiments were performed according to Good Agricultural Practice. […] Table 6. Application of compound 24 increases seed yield of wheat in field conditions

ZmCKX1 = target: T1, ZmCKX1 (Zea mays, UniProt Q9T0N8); test: ZmCKX1 inhibition, PMS/MTT assay; type: biochemical, maize
T1 construct: made in house; host or cells: Yarrowia lipolytica
T1 sequence (Q9T0N8 19-534): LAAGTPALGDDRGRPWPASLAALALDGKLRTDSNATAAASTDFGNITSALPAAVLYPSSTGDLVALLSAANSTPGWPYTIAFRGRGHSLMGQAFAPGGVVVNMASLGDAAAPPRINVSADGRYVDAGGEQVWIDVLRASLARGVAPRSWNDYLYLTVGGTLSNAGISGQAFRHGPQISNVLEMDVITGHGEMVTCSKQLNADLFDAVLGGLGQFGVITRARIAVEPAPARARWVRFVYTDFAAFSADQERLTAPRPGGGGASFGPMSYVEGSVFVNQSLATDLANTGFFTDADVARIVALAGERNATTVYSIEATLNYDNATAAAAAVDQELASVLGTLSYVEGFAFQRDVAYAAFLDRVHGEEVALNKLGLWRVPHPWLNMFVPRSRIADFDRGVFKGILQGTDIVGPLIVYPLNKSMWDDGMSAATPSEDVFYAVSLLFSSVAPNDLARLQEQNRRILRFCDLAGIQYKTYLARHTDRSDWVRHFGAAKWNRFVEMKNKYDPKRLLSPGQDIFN
Procedure: The IC50 (concentration of a substance that causes 50% inhibition of the enzyme activity) was measured by PMS/MTT assay [phenazine methosulphate/3-(4,5-dimethylthiazol-2-yl)-2,5-diphenyltetrazolium bromide]. The assay was performed in 96-well microtiter plates. Each well contained a reaction mixture with a final concentration of: 0.1 M KH2PO4, pH 7.4, 1 mM MTT, 0.2 mM PMS, tested substance in a concentration range of 0.1 nM - 1 µM and 10 µM N^6-isopentenyladenine (iP) as a substrate. To this reaction mixture 100 µL of medium containing the active enzyme ZmCKX1 was added. The enzyme was produced by the yeast Yarrowia lipolytica and isolated according to the protocol (Kopečný D. et al., 2005, […] 87:1011-1022). The plates were incubated for 30 min at 37 °C and the enzymatic reaction was stopped by the addition of 25 µL of 35% acetic acid. Then, the absorbance at 578 nm was measured on a spectrophotometer, and the absorbance of the sample without the substrate was substracted as a reference value. The IC50 value was determined from the concentration-dependent curves in GraphPad Prism software. The values shown in Table 1 are the average of at least two measurements each performed in three repetitions. […] The substance 3,5DCl-Ph-U is 1-(3,5-dichlorophenyl)-3-phenylurea, which we have been prepared to compare its inhibitory activity with the compounds presented in the present invention. Addition of the amide group to the unsubstituted phenyl ring of this substance gives the compound 2AD-3,5DC, which has 42-fold better inhibitory activity with the ZmCKX1 enzyme than 3,5DCl-Ph-U. F-INCYDE ((2-fluoro-9H-purin-6-yl)-(3-methoxyphenyl)amine), CPPU (1-(2-chloropyridin-4-yl)-3-phenylurea), and DCPPU (1-(2,6-dichloropyridin-4-yl)-3-phenylurea) are substances known in the prior art.

winter rapeseed = test: Field trial, seed yield of winter rapeseed; type: in vivo; conditions: 1 µM foliar application; for Yield (%): 300 L per hectare, control = 100 %; for weight of one thousand seeds: control 5.38 g
Procedure: In 2018, the effect of foliar application of substance 24 (concentration 1 µM in a volume of 300 L per hectare) on the yield of winter rapeseed was investigated in field conditions. The field trials were again performed according to Good Agricultural Practice. Substance 24 was applied to plants in two different growth phases - BBCH 30 and BBCH 33-35. […] The weight of one thousand seeds in the treated plants was 5.6 g (BBCH 30) and 5.8 g (BBCH 33-35). This phenomenon also contributed to the increase in total seed yield. Table 5. Application of substance 24 increases the seed yield of winter rapeseed in field conditions

Arabidopsis thaliana [2] = test: Foliar application, seed yield of Arabidopsis under optimal conditions; type: in vivo
Procedure: In our experiment, young Arabidopsis thaliana plants were grown in small pots in soil and they were sprayed with a 0.01 µM compound 24 (aq solution) in phase of 4 true leaves (about 14-20 days after sowing). Control plants were sprayed with an aqueous solution of DMSO (c = 0.01% (v/v)) and silwet (c = 0.001% (v/v)). Both treated (n = 25) and control plants (n = 25) were further grown under optimal conditions until their natural death. Subsequently, seeds from all plants were harvested and the yield was evaluated (Table 2). […] This means an increase in total seed yield of 21 %.
This means an increase in total seed yield of 17 %. Table 2. Foliar application of 24 increases seed yield of Arabidopsis thaliana

[3] = 10 µM seed application before sowing, 2016
[4] = 10 µM iP as substrate, pH 7.4, 30 min at 37 °C, average of at least two measurements, read-out: IC50 (µM) ZmCKX1
[5] = read-out: IC50 (µM) ZmCKX1, 10 µM iP as substrate, pH 7.4, 30 min at 37 °C, average of at least two measurements

COc1ccc(C(N)=O)c(NC(=O)Nc2cc(Cl)cc(Cl)c2)c1 [compound 24, 2-[3-(3,5-Dichlorophenyl)ureido]-4-methoxybenzamide] was tested, and the “Yield (mg), average seed yield” value (Arabidopsis thaliana [1]) was 117 ± 16 mg, the “life span (lived for an average of)” value (Arabidopsis thaliana [1]) was 75 days and the “Yield (mg), average seed yield” value (Arabidopsis thaliana [1]; listed as substance 24) was 117 (± 16) mg. For the same compound, the “Yield (%)” value (Arabidopsis thaliana [1]; watered control = 100 %) was 83%, the “Yield (%)” value (barley; 5 µM foliar application, 200 L per hectare, BBCH 21-23, 2017) was 106.3% and the “Yield (%)” value (barley; 5 µM foliar application, 200 L per hectare, BBCH 51, 2017) was 106.8%. For the same compound, the “number of tillers, more than the control plants” value (barley; [3]) was 14%, the “Yield (%)” value (barley; [3]) was 105.3% and the “Yield (%)” value (wheat; 5 µM foliar application, BBCH 25, 2017) was 105.9%. The “Yield (%)” value (wheat; 5 µM foliar application, BBCH 51, 2017) was 105.0%, the “Yield (%)” value (wheat; 50 µM seed dressing before sowing, 2017) was 104.0% and the “tillers, more than the control plants” value (wheat; treated plants, mode of application not specified, 2017) was “about 7%”. The IC50 (ZmCKX1; [4]) was 0.001 µM, the “Yield (%)” value (winter rapeseed; BBCH 30, 2018) was 106.2% and the “Yield (%)” value (winter rapeseed; BBCH 33-35, 2018) was 108.8%. For the same compound, the “weight of one thousand seeds” value (winter rapeseed; BBCH 30) was 5.6 g, the “weight of one thousand seeds” value (winter rapeseed; BBCH 33-35) was 5.8 g and the “Yield (mg), total seed yield per plant” value (Arabidopsis thaliana [2]; 0.01 µM aq solution sprayed in phase of 4 true leaves, n = 25, experiment and its repeat) was 148 (± 17) mg and 135 (± 13) mg and 148 ± 17 mg and 135 ± 13 mg. For the same compound, the seeds per silique (Arabidopsis thaliana [2]; 0.01 µM foliar spray, average) was 50 (± 5) and 52 (± 7) and the “Yield (%)” value (Arabidopsis thaliana [2]; 0.01 µM foliar spray, control = 100 %) was 121% and 117%.
COc1ccc(C(=O)NN)c(NC(=O)Nc2cc(Cl)cc(Cl)c2)c1 [compound 46, 1-(3,5-dichlorophenyl)-3-(2-hydrazinocarbonyl-5-methoxyphenyl)-urea] showed an IC50 (ZmCKX1; [4]) of 0.018 µM.
For O=C(Nc1cc(Cl)cc(Cl)c1)Nc1ccccc1C(=O)NCCO [compound 47, 2-[3-(3,5-dichlorophenyl)ureido]-N-(2-hydroxy-ethyl)benzamide], the IC50 (ZmCKX1; [4]) was 0.022 µM.
O=C(Nc1cc(Cl)cc(Cl)c1)Nc1cc(Br)ccc1C(=O)NCCO [compound 48, 4-Bromo-2-[3-(3,5-dichlorophenyl)ureido]-N-(2-hydroxy-ethyl)benzamide] was tested, and the IC50 (ZmCKX1) was 0.005 µM.
In the case of COc1ccc(C(=O)NCCO)c(NC(=O)Nc2cccc(F)c2)c1 [compound 49, 2-[3-(3-fluorophenyl)ureido]-4-methoxy-N-(2-hydroxy-ethyl)benzamide], the IC50 (ZmCKX1; [4]) is reported as 0.04 µM.
Compound COc1ccc(C(=O)NCCO)c(NC(=O)Nc2cc(Cl)cc(Cl)c2)c1 [compound 50, 2-[3-(3,5-dichlorophenyl)ureido]-4-methoxy-N-(2-hydroxyethyl)benzamide] has an IC50 (ZmCKX1; [4]) of 0.003 µM.
With O=C(Nc1cccc(Cl)c1)Nc1ccccc1C(=O)NCCCO [compound 51, 2-[3-(3-chlorophenyl)ureido]-N-(3-hydroxy-propyl)benzamide] the IC50 (ZmCKX1; [4]) was 0.15 µM.
In the case of O=C(Nc1cccc(Cl)c1)Nc1cc(Br)ccc1C(=O)NCCCO [compound 52, 4-bromo-2-[3-(3-chlorophenyl)ureido]-N-(3-hydroxy-propyl)benzamide], the IC50 (ZmCKX1; [5]) is reported as 0.08 µM.
In the case of COc1ccc(C(=O)NCCCO)c(NC(=O)Nc2cc(Cl)cc(Cl)c2)c1 [compound 53, 2-[3-(3,5-dichlorophenyl)ureido]-4-methoxy-N-(3-hydroxy-propyl)benzamide], the IC50 (ZmCKX1; [4]) is reported as 0.02 µM.
Compound NCCNC(=O)c1ccc(Br)cc1NC(=O)Nc1cccc(Cl)c1 [compound 54, 4-bromo-2-[3-(3-chlorophenyl)ureido]-N-(2-amino-ethyl)benzamide] has an IC50 (ZmCKX1; [5]) of 0.035 µM.
With NCCNC(=O)c1ccc(Br)cc1NC(=O)Nc1cc(Cl)cc(Cl)c1 [compound 55, N-(2-Aminoethyl)-4-bromo-2-[3-(3,5-dichlorophenyl)ureido]benzamide] the IC50 (ZmCKX1) was 0.01 µM.
For COc1ccc(C(=O)NCCN)c(NC(=O)Nc2cc(Cl)cc(Cl)c2)c1 [compound 56, 2-[3-(3,5-dichlorophenyl)ureido]-4-methoxy-N-(2-amino-ethyl)benzamide], the IC50 (ZmCKX1; [4]) was 0.013 µM.
NCCNC(=O)c1ccc(OC(F)(F)F)cc1NC(=O)Nc1cc(Cl)cc(Cl)c1 [compound 57, 2-[3-(3,5-dichlorophenyl)ureido]-4-trifluoromethoxy-N-(2-amino-ethyl)benzamide] was tested, and the IC50 (ZmCKX1; [4]) was 0.008 µM.
